For data set [1] the following is noted: all studies conducted with ABA; cited from earlier work.
For a further data set, the system named is influenza virus antigens. Description: Antigen-specific T cell response after immunization with inactivated influenza virus vaccine. It is filed as cell-based. The following applies: ABA-fed mice (controls 5).
For data set [2], the system named is db/db mice. Description: WAT and skeletal muscle (SM) inflammation in db/db mice (Example 8). It is filed as in vivo. The method, then: WAT Digestion. […] The floating portion (adipocyte-rich portion), was then removed and digested for an addition 60 minutes at 37° C.
Quantitative real-time reverse transcriptase PCR.
Complementary DNA (cDNA) concentrations for genes of interest were examined by real-time quantitative PCR using an iCycler IQ System and the iQ SYBR green supermix (BioRad). A standard curve was generated for each gene using 10-fold dilutions of purified amplicons starting at 5 pg of cDNA and used later to calculate the starting amount of target cDNA in the unknowns.

For data set [3], the system named is db/db mice. The data set can be described thus: Fasting glucose, plasma MCP-1, plasma and liver triglycerides, hepatic steatosis, body weight in db/db mice (Example 9). The class given is in vivo. The method, then:
Hepatic Steatosis, plasma MCP-1 and liver triglyceride content Liver specimens were excised and immediately fixed in 10% phosphate buffered neutral formalin, embedded in paraffin, cut at thicknesses of 5 microns and stained with hematoxylin and eosin (H&E) for histological examination. For hepatic triglyceride assessment, livers fragments (50-100 mg) were extracted for 16 hours at 4° C. with 4 ml CHCl/methanol (2:1, vol/vol). Two milliliters of 0.6% NaCl were then added to the extract, and the mixture was centrifuged at 2,000×g for 20 minutes. Lipids were isolated by nitrogen evaporation, dissolved in 100 μl isopropanol, and quantified with a triglyceride assay kit (Stanbio). The Triglyceride Assay Kit (Sigma) and Ready-set-go MCP-1 ELISA (ebioscience) were used to quantify plasma TGs and MCP-1, respectively, according to manufacturer's instructions.

The subject of data set [4] is white adipose tissue (WAT) of db/db mice. The data set can be described thus: WAT histology: adipocyte area and macrophage infiltration. It is filed as in vivo. An excerpt:
(§1) Hepatic and adipose sections were fixed in 10% buffered neutral formalin, embedded in paraffin, cut at thicknesses of 7 microns and later stained with hematoxylin and eosin (H&E) for histological examination of adipocyte hypertrophy and inflammatory lesions. Hepatic sections were scored based on the amount of lipodystrophy observed according to the Nonalcoholic steatohepatitis (NASH) scoring method, with a score of 0 signifying <5% of the cells contain lipid droplets and a score of 4 signifying that >75% of the cells contained lipids and a magnification of 400× (23). The final score was the average of five randomly chosen fields. The area of adipocytes from WAT was analyzed using Sigma Pro® 5.0 software at a magnification of 100×, and macrophage infiltration was determined by averaging the number of macrophages observed in five different fields at 400×.

Data set [5] concerns lymphocytes derived from the spleen. The data set can be described thus: Anti-CD3-induced proliferation of spleen-derived lymphocytes. It is filed as cell-based. The following applies: ABA-fed mice (controls 30.12).
Data set [6] concerns mesenteric lymph node-derived lymphocytes. Description: Proliferation and PGE2 production, mesenteric lymph node-derived lymphocytes. It is filed as cell-based, mice.
Data set [7] relates to db/db mice. The data set can be described thus: Liver histology, hepatic steatosis by NASH scoring method. It is filed as in vivo. The following applies: day 36, P<0.02.
From the text: as §1

The test system of the next data set is CTLA-4 on CD4+ T cells. Description: CTLA-4 assessment in cultured CD3/CD28-stimulated splenocytes. It is filed as cell-based, mice. The following applies: ABA 10 μM, 20 hr. The method, then: Splenocytes from wild-type mice (n=2) were isolated under sterile conditions and seeded into 96-well plates as described above. Cells were stimulated with anti-CD3 (5 μg/mL; BD Pharmingen) and anti-CD28 (1 μg/mL; BD Pharmingen) to induce proliferation and then treated with DMSO or ABA (10 μM, Sigma). Cells were then placed in a 37° C. incubator with 5% CO2 for 20 hours and immunophenotyped with anti-CD4 Alexa Fluor 700 (BD Pharmingen), anti-CD3-PE-Cy5 (BD Pharmingen), anti-CD8-PerCp-Cy5.5 (eBioscience), and'anti-CD152 (CTLA-4)-biotin (BD). Streptavidin PE-Texas Red (1 μg/mL; BD Pharmingen) was used as a secondary antibody. Flow results were computed with a BD LSR II flow cytometer and data analyses was performed with FACS Diva software (BD).

The next data set deals with T1, PPAR γ (Mus musculus, UniProt P37238).
T1 construct: expressed in transfected cells; host or cells: 3T3-L1 pre-adipocytes (ATCC)
T1 sequence (P37238 1-505): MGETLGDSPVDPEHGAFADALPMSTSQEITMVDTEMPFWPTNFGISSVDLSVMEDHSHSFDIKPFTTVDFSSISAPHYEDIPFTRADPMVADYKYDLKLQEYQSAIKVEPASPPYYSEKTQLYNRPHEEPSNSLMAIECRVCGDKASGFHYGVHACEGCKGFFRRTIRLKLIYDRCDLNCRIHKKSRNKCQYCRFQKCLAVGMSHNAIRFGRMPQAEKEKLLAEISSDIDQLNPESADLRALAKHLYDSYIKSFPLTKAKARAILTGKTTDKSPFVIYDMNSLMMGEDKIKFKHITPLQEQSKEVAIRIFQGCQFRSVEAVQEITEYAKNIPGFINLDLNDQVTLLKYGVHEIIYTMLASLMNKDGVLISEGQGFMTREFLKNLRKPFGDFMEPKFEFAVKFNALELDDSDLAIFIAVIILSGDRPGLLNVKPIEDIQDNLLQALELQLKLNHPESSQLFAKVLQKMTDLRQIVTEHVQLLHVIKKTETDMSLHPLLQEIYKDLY
The settings on record: ABA 12.5 μM, rosiglitazone 1 μM; previously found (ref 48); cited from earlier work.

Setting [8] is: db/db mice, 100 mg/kg diet, 36 days, vs control high-fat diet.

`CC1=CC(=O)CC(C)(C)C1(O)/C=C/C(C)=C\C(=O)O` (racemic) [ABA, abscisic acid]: in [1], the side-effects result is listed as “no side-effects observed”. Moreover, in the data set on influenza virus antigens, the “production of interleukin-2 (IL-2)” value is reported as 31.67 picograms IL-2/ml of cell supernatant. For the same compound, in the data set with db/db mice [2] (ABA-fed mice), the “MCP-1 expression in SM” value is reported as “significantly downregulated” and the “MCP-1 expression in stromal vascular cells (SVCs)” value is “significantly downregulated”. Besides, the “TNF-α expression in SM, control-fed db/db versus ABA-fed db/db mice” value in the data set with db/db mice [2] (P=0.03) is recorded as “approximately 2 fold”. Also, the IMAT adipocyte hypertrophy result with db/db mice [2] (db/db mice, 100 mg ABA/kg diet, 36 days) is on record as “significantly attenuated”. Moreover, in the data set on db/db mice [2] (dietary ABA-supplementation, 36 days), the “CCR2 and CCR5 macrophage infiltration into WAT” value is on record as “significantly decreased”. Moreover, in the data set on db/db mice [3] (ABA-fed db/db mice), the “MCP-1 protein concentrations in plasma” value was “significantly decreased”; the “decrease in plasma MCP-1” value is on record as 4 fold; the “hepatic steatosis, liver histology” value is given as “less severe”. In the data set with db/db mice [3] (setting [8]), the “fasting blood glucose (FBG)” value was “significantly lower” and the “plasma TGs concentrations” value was “significantly lower”. For the same compound, in the data set on db/db mice [3] (db/db mice, throughout the experiment), the “food intake or body weights” value is on record as “did not alter food intake or body weights”. Also, in the data set with db/db mice [3] (vs control diet), the “amount of liver triglycerides” value is listed as “significantly lower”. Besides, the “adipocyte size in WAT” value in data set [4] (ABA-fed vs control-fed db/db mice) was “significantly more small adipocytes and fewer hypertrophic adipocytes”. For the same compound, in data set [4] (ABA-fed vs control-fed, P<0.05), the “macrophages infiltrating WAT” value was “significantly lower number of macrophages”. Also, in data set [5], the “stimulation index, anti-CD3-induced proliferation” value was found to be 8.55. In addition, the “prostaglandin E2 (PGE2) production” value in data set [6] (ABA feeding) is given as “decreased”. For the same compound, in data set [6] (following ABA feeding), the “augmentation of proliferation of mesenteric lymph node-derived lymphocytes” value was found to be 10 fold. Further, the “hepatic steatosis (NASH scoring)” value with db/db mice [7] is “significantly mitigated”. For the same compound, in the data set on CTLA-4 on CD4+ T cells, the “CTLA-4 median fluorescence intensity (MFI) on CD4+ cells” value is reported as “increased CTLA-4 MFI” and the “percent of CD4+ T cells expressing CTLA-4” value is “significantly increased”. Besides, the “PPAR γ transactivation, comparison of the two agonists” value on PPAR γ is given as “equally effective”.

Values taken from patent US8367727B2, “Method of using abscisic acid to treat diseases and disorders” (priority 2006, dated 2013).
